We go through ten compounds from patent publication US9126957B2, “Selective glycosidase inhibitors and uses thereof” (MERCK SHARP & DOHME CORP., priority 2011, dated 2015).

For the test, the target named is human O-GlcNAcase (Homo sapiens (Human), UniProt O60502). Put plainly: Fluorescence-based hOGA assay for determination of KI values for inhibition of O-GlcNAcase activity. Type of test: biochemical. The following applies: purified human O-GlcNAcase, 4-Methylumbelliferyl N-acetyl-β-D-glucosaminide substrate, pH 7.0, Cheng-Prusoff. The method, then:
Assay for determination of KI values for inhibition of O-GlcNAcase activity Experimental procedure for kinetic analyses
Enzymatic reactions are carried out in a reaction containing 50 mM NaH2PO4, 100 mM NaCl and 0.1% BSA (pH 7.0) using 2 mM 4-Methylumbelliferyl N-acetyl-β-D-glucosaminide dihydrate (Sigma M2133) dissolved in ddH2O, as a substrate. The amount of purified human O-GlcNAcase enzyme used in the reaction is 0.7 nM. Test compound of varying concentrations is added to the enzyme prior to initiation of the reaction. The reaction is performed at room temperature in a 96-well plate and is initiated with the addition of substrate. The production of fluorescent product is measured every 60 sec for 45 min with a Tecan Infinite M200 plate-reader with excitation at 355 nm and emission detected at […], with 4-Methylumbelliferone (Sigma M1381) used to produce a standard curve. The slope of product production is determined for each concentration of compound tested and plotted, using standard curve fitting algorithms for sigmoidal dose response curves. The values for a four parameter logistic curve fit of the data are determined.
KI values are determined using the Cheng-Prusoff equation; the Km of O-GlcNacase for substrate is 0.2 mM.

Sequence of human O-GlcNAcase (O60502 whole entry): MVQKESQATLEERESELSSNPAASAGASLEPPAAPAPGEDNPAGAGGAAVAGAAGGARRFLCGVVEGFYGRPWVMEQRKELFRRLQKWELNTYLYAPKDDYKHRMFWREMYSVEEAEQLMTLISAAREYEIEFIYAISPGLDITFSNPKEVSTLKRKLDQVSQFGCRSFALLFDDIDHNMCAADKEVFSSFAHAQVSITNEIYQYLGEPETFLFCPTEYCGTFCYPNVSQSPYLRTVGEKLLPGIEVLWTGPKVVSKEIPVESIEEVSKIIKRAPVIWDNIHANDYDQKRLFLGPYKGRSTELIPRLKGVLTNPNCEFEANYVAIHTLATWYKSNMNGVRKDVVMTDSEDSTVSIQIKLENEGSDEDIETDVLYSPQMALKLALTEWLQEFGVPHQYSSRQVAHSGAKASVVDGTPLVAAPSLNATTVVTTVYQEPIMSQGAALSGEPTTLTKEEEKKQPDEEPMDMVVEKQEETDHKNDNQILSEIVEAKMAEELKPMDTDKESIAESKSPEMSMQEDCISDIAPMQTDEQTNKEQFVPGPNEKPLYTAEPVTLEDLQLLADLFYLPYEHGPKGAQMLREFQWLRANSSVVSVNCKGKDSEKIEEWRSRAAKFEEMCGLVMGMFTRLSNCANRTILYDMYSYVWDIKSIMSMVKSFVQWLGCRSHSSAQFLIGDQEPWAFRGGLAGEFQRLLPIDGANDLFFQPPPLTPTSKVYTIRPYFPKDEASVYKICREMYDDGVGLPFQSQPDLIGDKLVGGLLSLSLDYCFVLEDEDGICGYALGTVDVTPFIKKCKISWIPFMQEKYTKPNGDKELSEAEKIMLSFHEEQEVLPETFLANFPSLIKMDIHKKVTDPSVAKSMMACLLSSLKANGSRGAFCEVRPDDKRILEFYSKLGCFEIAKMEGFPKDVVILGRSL

A word on the Ki: it is the dissociation constant of the complex between target and ligand, obtained from inhibition or displacement. Consider `C[C@@H](O)[C@@H]1C[C@H]2OC(N(C)C)=N[C@H]2[C@H](O)[C@H]1O` (single isomer, unassigned) [Example 4], for which the Ki stood at 437 nM. Compound `C[C@@H](O)[C@H]1C[C@@H]2OC(N(C)C)=N[C@@H]2[C@@H](O)[C@@H]1O` [Example 1A, (3aR,4R,5R,6R,7aS)-2-(Dimethylamino)-6-((R)-1-hydroxyethyl)-3a,4,5,6,7,7a-hexahydrobenzo[d]oxazole-4,5-diol] yielded an inhibitory constant (Ki) of 4.5 nM. The result for `C[C@H](O)[C@H]1C[C@@H]2OC(N(C)C)=N[C@@H]2[C@@H](O)[C@@H]1O` [Example 2, (3aR,4R,5R,6R,7aS)-2-(Dimethylamino)-6-((S)-1-hydroxyethyl)-3a,4,5,6,7,7a-hexahydro-benzo[d]oxazole-4,5-diol] reads 0.26 nM.

In turn, `CN(C)C1=N[C@@H]2[C@@H](O)[C@H](O)[C@@H](C(C)(C)O)C[C@@H]2O1` [Example 3, (3aR,4R,5R,6S,7aS)-2-(Dimethylamino)-6-(2-hydroxypropan-2-yl)-3a,4,5,6,7,7a-hexahydro-benzo[d]oxazole-4,5-diol] had an inhibition constant Ki of 54 nM. On to `CCCNC1=N[C@@H]2[C@@H](O)[C@H](O)[C@@H]([C@H](C)O)C[C@@H]2O1` [Example 5, (3aR,4R,5R,6R,7aS)-6-((S)-1-hydroxyethyl)-2-(propylamino)-3a,4,5,6,7,7a-hexahydrobenzo[d] oxazole-4,5-diol], for which the Ki stood at 7.1 nM. The result for `CNC1=N[C@@H]2[C@@H](O)[C@H](O)[C@@H]([C@H](C)O)C[C@@H]2O1` [Example 6, (3aR,4R,5R,6R,7aS)-6-((S)-1-hydroxyethyl)-2-(methylamino)-3a,4,5,6,7,7a-hexahydrobenzo[d] oxazole-4,5-diol] reads 0.26 nM; that for `CCNC1=N[C@@H]2[C@@H](O)[C@H](O)[C@@H](C(C)(C)O)C[C@@H]2O1` [Example 7, (3aR,4R,5R, 6S,7aS)-2-(ethylamino)-6-(2-hydroxy-propan-2-yl)-3a,4,5,6,7,7a-hexahydro-benzo[d] oxazole-4,5-diol], 93 nM; that for `CCCNC1=N[C@@H]2[C@@H](O)[C@H](O)[C@@H](C(C)(C)O)C[C@@H]2O1` [Example 8, (3aR,4R,5R, 6S,7aS)-6-(2-hydroxy-propan-2-yl)-2-(propylamino)-3a,4,5,6,7,7a-hexahydro-benzo[d] oxazole-4,5-diol], 1670 nM. The result for `C[C@@H](O)[C@H]1C[C@@H]2SC(N(C)C)=N[C@@H]2[C@@H](O)[C@@H]1O` [Example 9] reads 14 nM; that for `C[C@H](O)[C@H]1C[C@@H]2SC(N(C)C)=N[C@@H]2[C@@H](O)[C@@H]1O` [Example 10, (3aR,4R,5R,6R,7aS)-2-(dimethylamino)-6-((S)-1-hydroxyethyl)-3a,4,5,6,7,7a-hexahydrobenzo[d]thiazole-4,5-diol], 0.14 nM.
